Species: Rattus norvegicus
Assay: Open TG-GATES - Regimen: Daily Repeat
Type: toxicity, organism-based, Sprague-Dawley
Parameters: regimen Daily Repeat, gender Male, age 6 weeks
Conditions: in vivo, po, route gavage; for APTT / Bas / Eos / Fbg / Hb / Ht / Lym / MCHC / MCV / Mono / Neu / PT / Plat / RBC / Ret / WBC: tissue Blood; for KIDNEY_L / KIDNEY_R / KIDNEY_TOTAL: tissue Kidney; for LIVER: tissue Liver; for ALP / ALT / AST / BUN / CRE / Ca / Cl / DBIL / GLC / IP / K / LDH / Na / PL / RALB / TBIL / TG / TP / gamma-GTP: tissue Plasma
[1] = 300 mg/kg, 72 h, dose level Middle, time 3 day
[2] = 300 mg/kg, […], dose level Middle, time 7 day
[3] = 300 mg/kg, […], dose level Middle, time 14 day
[4] = 300 mg/kg, […], dose level Middle, time 28 day
[5] = 1000 mg/kg, 72 h, dose level High, time 3 day
[6] = 1000 mg/kg, […], dose level High, time 7 day
[7] = 1000 mg/kg, […], dose level High, time 14 day
[8] = 1000 mg/kg, […], dose level High, time 28 day

## CN(C)C(=N)N=C(N)N [METFORMIN]
[1]
  TERMINAL_BW: 223.9 g
  APTT: 17.6 s
  Bas: 0%
  Eos: 1%
  Fbg: 251.8 mg/dL
  Hb: 13.2 g/dL
  Ht: 39.3%
  Lym: 78.2%
  MCHC: 33.6%
  MCV: 63.4 fL
  Mono: 3.2%
  Neu: 17.2%
  PT: 12.7 s
  Plat: 115.7 x10_4/uL
  RBC: 621.4 x10_4/ul
  Ret: 7.1%
  WBC: 94 x10_2/uL
  KIDNEY_L: 1 g
  KIDNEY_R: 1 g
  KIDNEY_TOTAL: 2 g
  LIVER: 11.3 g
  ALP: 1558.4 IU/L
  ALT: 52.2 IU/L
  AST: 78.4 IU/L
  BUN: 15.8 mg/dL
  CRE: 0.2 mg/dL
  Ca: 11.1 mg/dL
  Cl: 104.8 meq/L
  DBIL: 0.016 mg/dL
  GLC: 193.2 mg/dL
  IP: 8.3 mg/dL
  K: 3.9 meq/L
  LDH: 62.2 IU/L
  Na: 141.6 meq/L
  PL: 140.8 mg/dL
  RALB: 2.6 g/dL
  TBIL: 0.038 mg/dL
  TG: 68.2 mg/dL
  TP: 5.6 g/dL
  gamma-GTP: 1 IU/L
[2]
  TERMINAL_BW: 256.3 g
  APTT: 16 s
  Bas: 0%
  Eos: 1%
  Fbg: 279.8 mg/dL
  Hb: 13.8 g/dL
  Ht: 41%
  Lym: 77.6%
  MCHC: 33.7%
  MCV: 62.5 fL
  Mono: 3.6%
  Neu: 17.4%
  PT: 12 s
  Plat: 126.1 x10_4/uL
  RBC: 656.2 x10_4/ul
  Ret: 5.6%
  WBC: 77.5 x10_2/uL
  KIDNEY_L: 1 g
  KIDNEY_R: 1 g
  KIDNEY_TOTAL: 2.1 g
  LIVER: 12.7 g
  ALP: 1101.6 IU/L
  ALT: 61 IU/L
  AST: 83.2 IU/L
  BUN: 15.6 mg/dL
  CRE: 0.2 mg/dL
  Ca: 10.8 mg/dL
  Cl: 106.2 meq/L
  DBIL: 0.014 mg/dL
  GLC: 182.8 mg/dL
  IP: 8.2 mg/dL
  K: 4.6 meq/L
  LDH: 102.8 IU/L
  Na: 141.8 meq/L
  PL: 144.4 mg/dL
  RALB: 2.7 g/dL
  TBIL: 0.028 mg/dL
  TG: 119.6 mg/dL
  TP: 5.7 g/dL
  gamma-GTP: 0.8 IU/L
[3]
  TERMINAL_BW: 308.9 g
  APTT: 17.2 s
  Bas: 0.2%
  Eos: 1.2%
  Fbg: 248.8 mg/dL
  Hb: 14.3 g/dL
  Ht: 41.6%
  Lym: 78.6%
  MCHC: 34.4%
  MCV: 60.4 fL
  Mono: 2.6%
  Neu: 17%
  PT: 12.2 s
  Plat: 116.5 x10_4/uL
  RBC: 690.4 x10_4/ul
  Ret: 4.6%
  WBC: 107 x10_2/uL
  KIDNEY_L: 1.2 g
  KIDNEY_R: 1.2 g
  KIDNEY_TOTAL: 2.4 g
  LIVER: 14 g
  ALP: 1291.2 IU/L
  ALT: 50.4 IU/L
  AST: 73 IU/L
  BUN: 16.4 mg/dL
  CRE: 0.2 mg/dL
  Ca: 10.9 mg/dL
  Cl: 104.8 meq/L
  DBIL: 0.016 mg/dL
  GLC: 190.4 mg/dL
  IP: 7.1 mg/dL
  K: 3.8 meq/L
  LDH: 72.2 IU/L
  Na: 142.4 meq/L
  PL: 157.6 mg/dL
  RALB: 2.7 g/dL
  TBIL: 0.032 mg/dL
  TG: 134.4 mg/dL
  TP: 5.9 g/dL
  gamma-GTP: 1 IU/L
[4]
  TERMINAL_BW: 387.2 g
  APTT: 19.8 s
  Bas: 0.2%
  Eos: 1%
  Fbg: 261.8 mg/dL
  Hb: 15.3 g/dL
  Ht: 44.3%
  Lym: 79.4%
  MCHC: 34.5%
  MCV: 57 fL
  Mono: 2.6%
  Neu: 16.2%
  PT: 12.2 s
  Plat: 100.1 x10_4/uL
  RBC: 777.2 x10_4/ul
  Ret: 2.5%
  WBC: 112.9 x10_2/uL
  KIDNEY_L: 1.4 g
  KIDNEY_R: 1.4 g
  KIDNEY_TOTAL: 2.9 g
  LIVER: 16.4 g
  ALP: 1096.8 IU/L
  ALT: 47.2 IU/L
  AST: 68.8 IU/L
  BUN: 15.6 mg/dL
  CRE: 0.2 mg/dL
  Ca: 11.1 mg/dL
  Cl: 105.6 meq/L
  DBIL: 0.016 mg/dL
  GLC: 187.6 mg/dL
  IP: 6.8 mg/dL
  K: 3.8 meq/L
  LDH: 52 IU/L
  Na: 145.4 meq/L
  PL: 150.4 mg/dL
  RALB: 2.8 g/dL
  TBIL: 0.036 mg/dL
  TG: 158.2 mg/dL
  TP: 6.2 g/dL
  gamma-GTP: 1 IU/L
[5]
  TERMINAL_BW: 213.8 g
  APTT: 17.6 s
  Bas: 0%
  Eos: 1%
  Fbg: 223.8 mg/dL
  Hb: 13.4 g/dL
  Ht: 39.4%
  Lym: 72.8%
  MCHC: 34.1%
  MCV: 63.1 fL
  Mono: 4%
  Neu: 22%
  PT: 12.4 s
  Plat: 121.1 x10_4/uL
  RBC: 624.8 x10_4/ul
  Ret: 5.5%
  WBC: 107 x10_2/uL
  KIDNEY_L: 0.9 g
  KIDNEY_R: 0.9 g
  KIDNEY_TOTAL: 1.8 g
  LIVER: 11.6 g
  ALP: 1276.4 IU/L
  ALT: 37.4 IU/L
  AST: 74 IU/L
  BUN: 16.6 mg/dL
  CRE: 0.2 mg/dL
  Ca: 11.1 mg/dL
  Cl: 104 meq/L
  DBIL: 0.012 mg/dL
  GLC: 180.2 mg/dL
  IP: 8.7 mg/dL
  K: 4.1 meq/L
  LDH: 63.4 IU/L
  Na: 140.2 meq/L
  PL: 137.8 mg/dL
  RALB: 2.5 g/dL
  TBIL: 0.032 mg/dL
  TG: 95.8 mg/dL
  TP: 5.4 g/dL
  gamma-GTP: 1.2 IU/L
[6]
  TERMINAL_BW: 243 g
  APTT: 15.3 s
  Bas: 0.2%
  Eos: 0.6%
  Fbg: 254.8 mg/dL
  Hb: 13.8 g/dL
  Ht: 41%
  Lym: 80.4%
  MCHC: 33.7%
  MCV: 61.8 fL
  Mono: 3.2%
  Neu: 15.2%
  PT: 12.1 s
  Plat: 116.4 x10_4/uL
  RBC: 664 x10_4/ul
  Ret: 5.5%
  WBC: 101.5 x10_2/uL
  KIDNEY_L: 1.1 g
  KIDNEY_R: 1 g
  KIDNEY_TOTAL: 2.1 g
  LIVER: 12.1 g
  ALP: 1316.4 IU/L
  ALT: 44.4 IU/L
  AST: 82.2 IU/L
  BUN: 15 mg/dL
  CRE: 0.2 mg/dL
  Ca: 10.9 mg/dL
  Cl: 104.2 meq/L
  DBIL: 0.012 mg/dL
  GLC: 193.2 mg/dL
  IP: 8.4 mg/dL
  K: 4.4 meq/L
  LDH: 57.4 IU/L
  Na: 140.8 meq/L
  PL: 141.6 mg/dL
  RALB: 2.6 g/dL
  TBIL: 0.024 mg/dL
  TG: 92.2 mg/dL
  TP: 5.5 g/dL
  gamma-GTP: 1 IU/L
[7]
  TERMINAL_BW: 288.9 g
  APTT: 17 s
  Bas: 0%
  Eos: 0.8%
  Fbg: 252.2 mg/dL
  Hb: 14.4 g/dL
  Ht: 41.7%
  Lym: 75.4%
  MCHC: 34.5%
  MCV: 59.5 fL
  Mono: 3.4%
  Neu: 19.6%
  PT: 12.2 s
  Plat: 124 x10_4/uL
  RBC: 702 x10_4/ul
  Ret: 4.4%
  WBC: 121.9 x10_2/uL
  KIDNEY_L: 1.2 g
  KIDNEY_R: 1.1 g
  KIDNEY_TOTAL: 2.3 g
  LIVER: 14.4 g
  ALP: 1249.8 IU/L
  ALT: 39 IU/L
  AST: 75 IU/L
  BUN: 17.6 mg/dL
  CRE: 0.2 mg/dL
  Ca: 11 mg/dL
  Cl: 103.6 meq/L
  DBIL: 0.008 mg/dL
  GLC: 188.6 mg/dL
  IP: 6.9 mg/dL
  K: 4.1 meq/L
  LDH: 61.2 IU/L
  Na: 141.4 meq/L
  PL: 164 mg/dL
  RALB: 2.8 g/dL
  TBIL: 0.026 mg/dL
  TG: 148.6 mg/dL
  TP: 6 g/dL
  gamma-GTP: 1.2 IU/L
[8]
  TERMINAL_BW: 357 g
  APTT: 17.8 s
  Bas: 0%
  Eos: 1.2%
  Fbg: 258.6 mg/dL
  Hb: 15 g/dL
  Ht: 43.7%
  Lym: 74.6%
  MCHC: 34.3%
  MCV: 57.7 fL
  Mono: 3.2%
  Neu: 20.6%
  PT: 12 s
  Plat: 105.5 x10_4/uL
  RBC: 757.4 x10_4/ul
  Ret: 2.6%
  WBC: 108.4 x10_2/uL
  KIDNEY_L: 1.4 g
  KIDNEY_R: 1.4 g
  KIDNEY_TOTAL: 2.8 g
  LIVER: 16.5 g
  ALP: 1090.4 IU/L
  ALT: 41.6 IU/L
  AST: 71.4 IU/L
  BUN: 17.4 mg/dL
  CRE: 0.2 mg/dL
  Ca: 11.1 mg/dL
  Cl: 104 meq/L
  DBIL: 0.014 mg/dL
  GLC: 194.2 mg/dL
  IP: 6.7 mg/dL
  K: 3.9 meq/L
  LDH: 50.2 IU/L
  Na: 145.2 meq/L
  PL: 152.6 mg/dL
  RALB: 2.7 g/dL
  TBIL: 0.034 mg/dL
  TG: 148 mg/dL
  TP: 6 g/dL
  gamma-GTP: 1 IU/L

— ChEMBL document CHEMBL3885861, “Open TG-GATES”
